# Measurements published in US20040110802A1, “Antibacterial benzoic acid derivatives” (priority 2002, published 2004).
# System: SAUR 9218
# Experiment: MIC Test Method, standard agar dilution
# Format: cell-based
# Conditions: agar dilution, Mueller Hinton agar, incubated overnight at 35° C.; lowest concentration that inhibits visible growth; read-out: SAUR 9218 MIC
# Procedure, shortened: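 Agar dilution in Mueller Hinton agar with serial 2-fold compound dilutions. Staphylococcus aureus strain 9218 spotted at approximately 10^4 to 10^5 cells per spot, incubated overnight at 35 °C; MIC (μg/ml) is the lowest concentration preventing visible growth.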
row,SMILES,MIC [µg/mL]
1,O=C(O)c1cc(Br)ccc1NC(=O)c1ncc(C(F)(F)F)cc1Cl,64
2,O=C(O)c1cc(Br)ccc1NC(=O)c1nc(N2CCOCC2)ncc1Cl,> 128
3,COc1cc(C(=O)Nc2ccc(Br)cc2C(=O)O)nn1Cc1ccccc1,128
4,Cn1nc(C(=O)Nc2ccc(Br)cc2C(=O)O)cc1OCc1ccccc1,16
5,CC(=O)Oc1ccc(N2C(=O)c3ccc(C(=O)Nc4ccc(Br)cc4C(=O)O)cc3C2=O)cc1,64
6,Nc1ccc(CCNS(=O)(=O)c2cc(C(=O)Nc3ccc(Br)cc3C(=O)O)cs2)cc1,128
7,O=C(Nc1ccc(Br)cc1C(=O)O)c1csc(S(=O)(=O)NC2Cc3ccccc3C2)c1,8
8,O=C(Nc1ccc(Br)cc1C(=O)O)c1csc(S(=O)(=O)NC2CCN(Cc3ccccc3)CC2)c1,64
9,O=C(Nc1ccc(Br)cc1C(=O)O)c1csc(S(=O)(=O)N2CCN(c3ccc(Cl)cc3)CC2)c1,32
10,CN(C)c1ccc(CNS(=O)(=O)c2cc(C(=O)Nc3ccc(Br)cc3C(=O)O)cs2)cc1,64
11,Cc1sc(C(=O)Nc2ccc(Br)cc2C(=O)O)cc1S(=O)(=O)NCc1ccc(N(C)C)cc1,16
12,Cc1sc(C(=O)Nc2ccc(C#N)cc2C(=O)O)cc1S(=O)(=O)N1CCN(c2ccccn2)CC1,32
13,Cc1sc(C(=O)Nc2ccc(C#N)cc2C(=O)O)cc1S(=O)(=O)N1CCC(C)CC1,8
14,Cc1sc(C(=O)Nc2ccc(C#N)cc2C(=O)O)cc1S(=O)(=O)Nc1ccc2c(c1)CCC2,32
15,Cc1sc(C(=O)Nc2ccc(C#N)cc2C(=O)O)cc1S(=O)(=O)N(C)CCc1ccccc1,4
16,Cc1sc(C(=O)Nc2ccc(C#N)cc2C(=O)O)cc1S(=O)(=O)N1CCCCCCC1,8
17,Cc1sc(C(=O)Nc2ccc(C#N)cc2C(=O)O)cc1S(=O)(=O)N1CCCC(C)C1 (stereo not drawn),2
18,Cc1sc(C(=O)Nc2ccc(C#N)cc2C(=O)O)cc1S(=O)(=O)N(C)CCC(O)c1ccccc1 (stereo not drawn),64
19,CCCCN(CC#N)S(=O)(=O)c1cc(C(=O)Nc2ccc(C#N)cc2C(=O)O)sc1C,64
20,Cc1sc(C(=O)Nc2ccc(C#N)cc2C(=O)O)cc1S(=O)(=O)N1CCCC1,16
21,Cc1sc(C(=O)Nc2ccc(C#N)cc2C(=O)O)cc1S(=O)(=O)N1CCN(Cc2ccccc2)CC1,> 128
22,Cc1sc(C(=O)Nc2ccc(C#N)cc2C(=O)O)cc1S(=O)(=O)N(C)CCC#N,128
23,Cc1sc(C(=O)Nc2ccc(C#N)cc2C(=O)O)cc1S(=O)(=O)N1CCC(O)CC1,16
24,Cc1sc(C(=O)Nc2ccc(C#N)cc2C(=O)O)cc1S(=O)(=O)N1CCCC2CCCCC21 (stereo not drawn),32
25,COc1ccc2[nH]c(C(=O)Nc3ccc(C#N)cc3C(=O)O)cc2c1,128
26,N#Cc1ccc(NC(=O)c2cc3cc(OCc4ccccc4)ccc3[nH]2)c(C(=O)O)c1,16

row,SMILES,MIC [µg/mL]
1,Cc1noc(C)c1-c1cncc(C(=O)Nc2ccc(C#N)cc2C(=O)O)c1,16
2,N#Cc1ccc(NC(=O)c2cncc(-c3cnc4ccccc4c3)c2)c(C(=O)O)c1,> 128
3,N#Cc1ccc(NC(=O)c2cncc(-c3ccc(C(F)(F)F)cc3)c2)c(C(=O)O)c1,> 128
4,N#Cc1ccc(NC(=O)c2cncc(-c3cccc(C(F)(F)F)c3)c2)c(C(=O)O)c1,16
5,N#Cc1ccc(NC(=O)c2cncc(-c3ccccc3)c2)c(C(=O)O)c1,16
6,N#Cc1ccc(NC(=O)c2cnc(SCc3ccccc3)s2)c(C(=O)O)c1,1
7,N#Cc1ccc(NC(=O)c2coc(-c3ccccc3)n2)c(C(=O)O)c1,64
8,CCCCN1C(=O)c2ccc(C(=O)Nc3ccc(C#N)cc3C(=O)O)cc2C1=O,4
9,CC(C)(C)N1C(=O)c2ccc(C(=O)Nc3ccc(Br)cc3C(=O)O)cc2C1=O,4
10,Cc1oc(C(=O)Nc2ccc(C#N)cc2C(=O)O)cc1S(=O)(=O)N1CCCC1CO (stereo not drawn),8
11,Cc1sc(C(=O)Nc2ccc(C#N)cc2C(=O)O)cc1S(=O)(=O)N1CCC(O)(c2ccc(Br)cc2)CC1,32
12,CCCCN(CCO)S(=O)(=O)c1cc(C(=O)Nc2ccc(C#N)cc2C(=O)O)sc1C,32
13,N#Cc1ccc(NC(=O)c2cncc(-c3cccc4cccnc34)c2)c(C(=O)O)c1,32
14,N#Cc1ccc(NC(=O)c2ccc(N3CCOCC3)nc2)c(C(=O)O)c1,64
15,N#Cc1ccc(NC(=O)c2cncc(C#CC3C=NNC3)c2)c(C(=O)O)c1 (stereo not drawn),4
16,COc1ncc(C#Cc2cncc(C(=O)Nc3ccc(C#N)cc3C(=O)O)c2)c(OC)n1,> 128
17,C#Cc1cncc(C(=O)Nc2ccc(C#N)cc2C(=O)O)c1,16
18,CCC1CCCCN1S(=O)(=O)c1cc(C(=O)Nc2ccc(C#N)cc2C(=O)O)sc1C (stereo not drawn),2
19,COc1cc2c(cc1OC)CN(S(=O)(=O)c1cc(C(=O)Nc3ccc(C#N)cc3C(=O)O)sc1C)CC2,8
20,Cc1sc(C(=O)Nc2ccc(C#N)cc2C(=O)O)cc1S(=O)(=O)N1CCc2ccccc2C1,4
21,N#Cc1ccc(NC(=O)c2ccc(S(=O)(=O)Cc3ccccc3)nc2)c(C(=O)O)c1,64
22,N#Cc1ccc(NC(=O)c2ccc(N3CCCCC3)nc2)c(C(=O)O)c1,8
23,Cc1noc(C)c1C#Cc1cncc(C(=O)Nc2ccc(C#N)cc2C(=O)O)c1,16
24,N#Cc1ccc(NC(=O)c2cncc(C#Cc3ccccc3)c2)c(C(=O)O)c1,4
25,Cc1c(C(=O)Cc2cncc(C(=O)Nc3ccc(C#N)cc3C(=O)O)c2)c(=O)n(-c2ccccc2)n1C,32
26,N#Cc1ccc(NC(=O)c2cc(-c3ccccc3)on2)c(C(=O)O)c1,0.25

row,SMILES,MIC [µg/mL]
1,N#Cc1ccc(NC(=O)c2ccc(SC3CCOCC3)nc2)c(C(=O)O)c1,0.125
2,CCSc1cncc(C(=O)Nc2ccc(C#N)cc2C(=O)O)c1,1
3,N#Cc1ccc(NC(=O)c2csc(SCc3ccccc3)n2)c(C(=O)O)c1,4
4,O=C(Nc1ccc(Br)cc1C(=O)O)c1cc(-c2ccccc2)on1,0.25
5,N#Cc1ccc(NC(=O)c2ccc(SCCCOc3ccc(Br)cc3)nc2)c(C(=O)O)c1,0.125
6,N#Cc1ccc(NC(=O)c2ccc(SCC3CC3)nc2)c(C(=O)O)c1,0.5
7,CC(C)Sc1ccc(C(=O)Nc2ccc(Br)cc2C(=O)O)cn1,1
8,N#Cc1ccc(NC(=O)c2cnc(SCc3ccccc3)cn2)c(C(=O)O)c1,0.125
9,COc1ccc2oc(C(=O)Nc3ccc(C#N)cc3C(=O)O)cc2c1,2
10,COc1cccc2cc(C(=O)Nc3ccc(C#N)cc3C(=O)O)oc12,4
11,Cn1c(C(=O)Nc2ccc(C#N)cc2C(=O)O)cc2ccccc21,0.25
12,N#Cc1ccc(NC(=O)c2ccc(SC3CCCCC3)nc2)c(C(=O)O)c1,0.5
13,O=C(Nc1ccc(Br)cc1C(=O)O)c1cc(SCc2ccccc2)on1,0.125
14,O=C(Nc1ccc(Br)cc1C(=O)O)c1ccc(SC2CCCCC2)nc1,1
15,N#Cc1ccc(NC(=O)c2cc(SCc3ccccc3)on2)c(C(=O)O)c1,0.125
16,O=C(Nc1ccc(Br)cc1C(=O)O)c1cnc(SCc2ccccc2)cn1,0.125
17,CCC(C)Sc1ccc(C(=O)Nc2ccc(C#N)cc2C(=O)O)cn1 (stereo not drawn),0.5
18,CCCCCSc1ccc(C(=O)Nc2ccc(C#N)cc2C(=O)O)cn1,0.125
19,N#Cc1ccc(NC(=O)c2cc3ccc(OCc4ccccc4)cc3[nH]2)c(C(=O)O)c1,0.125
20,O=C(Nc1ccc(Br)cc1-c1noc(=O)[nH]1)c1cc(-c2ccccc2)on1,1
21,N#Cc1ccc(NC(=O)c2cc3cccc(Cl)c3[nH]2)c(C(=O)O)c1,1
22,COc1cccc2[nH]c(C(=O)Nc3ccc(C#N)cc3C(=O)O)cc12,0.25
23,Cn1c(C(=O)Nc2ccc(Br)cc2C(=O)O)cc2ccccc21,0.5
24,N#Cc1ccc(NC(=O)c2cc3ccc(Cl)cc3[nH]2)c(C(=O)O)c1,2
25,N#Cc1ccc(NC(=O)c2cc3ccccc3n2Cc2ccccc2)c(C(=O)O)c1,8
26,CCn1c(C(=O)Nc2ccc(C#N)cc2C(=O)O)cc2ccccc21,1

row,SMILES,MIC [µg/mL]
1,N#Cc1ccc(NC(=O)c2cc3cccc(S(=O)(=O)c4ccccc4)c3[nH]2)c(C(=O)O)c1,0.125
2,N#Cc1ccc(NC(=O)c2ncc(-c3ccccc3)o2)c(C(=O)O)c1,0.5
3,O=C(Nc1ccc(Br)cc1C(=O)O)c1nnc(SCc2ccccc2)s1,0.125
4,N#Cc1ccc(NC(=O)c2cc3cc(-c4ccccc4)oc3cn2)c(C(=O)O)c1,8
5,CCCCCCSc1ccc(C(=O)Nc2ccc(C#N)cc2C(=O)O)cn1,0.125
6,CCOC(=O)CCSc1ccc(C(=O)Nc2ccc(C#N)cc2C(=O)O)cn1,1
7,N#Cc1ccc(NC(=O)c2cncc(SCc3ccccc3)n2)c(C(=O)O)c1,64
8,O=C(Nc1ccc(Br)cc1C(=O)O)c1cncc(SCc2ccccc2)n1,16
9,N#Cc1ccc(NC(=O)c2ncc(-c3cccc(Cl)c3)s2)c(C(=O)O)c1,1
10,N#Cc1ccc(NC(=O)c2ncc(-c3ccccc3)s2)c(C(=O)O)c1,1
11,N#Cc1ccc(NC(=O)c2nc(-c3ccccc3)cs2)c(C(=O)O)c1,8
12,N#Cc1ccc(NC(=O)c2nc3ccccc3s2)c(C(=O)O)c1,0.25
13,N#Cc1ccc(NC(=O)c2cc3cccnc3s2)c(C(=O)O)c1,4
14,Cc1coc2cnc(C(=O)Nc3ccc(C#N)cc3C(=O)O)cc12,16
15,CCCCCSc1nnc(C(=O)Nc2ccc(Br)cc2C(=O)O)o1,0.25
16,COCCOCCCSc1ccc(C(=O)Nc2ccc(C#N)cc2C(=O)O)cn1,1
17,O=C(Nc1ccc(Cl)cc1C(=O)O)c1ncc(-c2ccccc2)o1,1
18,O=C(Nc1ccc(Br)cc1C(=O)O)c1ccc(SC2CCOCC2)nc1,1
19,CCCCCCCCCSc1ccc(C(=O)Nc2ccc(C#N)cc2C(=O)O)cn1,1
20,Cc1noc(C)c1CSc1ccc(C(=O)Nc2ccc(C#N)cc2C(=O)O)cn1,0.5
21,Cc1cc(C(=O)Nc2ccc(C#N)cc2C(=O)O)no1,4
22,COC(=O)CSc1ccc(C(=O)Nc2ccc(C#N)cc2C(=O)O)cn1,0.5
23,CCCCCCSc1ccc(C(=O)Nc2ccc(Br)cc2C(=O)O)cn1,0.125
24,CCCCCCSc1ccc(C(=O)Nc2ccc(Cl)cc2C(=O)O)cn1,0.125
